Test results as given in paper PMC3444172 (The Journal of organic chemistry, 2012).
Entries after “also recorded” stand apart in the source; their conditions may differ. Where two headings read alike, the source gives them in different places.

Columns and labels:
Format in all cases: biochemical
[1] = biological target: M. tuberculosis riboflavin synthase (recombinant) (Mycobacterium tuberculosis, UniProt P9WK35); experiment: Kinetic assay of riboflavin synthase inhibitors, M. tuberculosis enzyme; details: for Kcat (rate constant ES → E + P) / Ki (E + I ⇌ EI) / Ks (substrate dissociation constant, E + S ⇌ ES) / Kis (ES + I ⇌ ESI): substrate 3 varied, Tris·HCl pH 7.0
M. tuberculosis riboflavin synthase (recombinant), sequence (P9WK35 whole entry): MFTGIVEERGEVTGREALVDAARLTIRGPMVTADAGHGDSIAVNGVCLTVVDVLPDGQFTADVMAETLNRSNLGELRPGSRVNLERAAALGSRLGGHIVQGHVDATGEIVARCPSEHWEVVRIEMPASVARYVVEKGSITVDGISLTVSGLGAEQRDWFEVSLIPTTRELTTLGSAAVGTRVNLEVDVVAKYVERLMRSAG

[2] = biological target: M. tuberculosis lumazine synthase (recombinant homopentameric) (Mycobacterium tuberculosis, UniProt P9WHE9); details: for inhibitory activity in words: lumazine synthase inhibition, qualitative statement
M. tuberculosis lumazine synthase (recombinant homopentameric), sequence (P9WHE9 whole entry): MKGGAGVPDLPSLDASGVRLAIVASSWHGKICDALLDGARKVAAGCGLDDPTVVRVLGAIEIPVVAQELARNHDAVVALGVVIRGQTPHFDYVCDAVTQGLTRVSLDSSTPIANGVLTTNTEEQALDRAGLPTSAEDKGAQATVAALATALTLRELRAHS

[3] = biological target: E. coli riboflavin synthase (recombinant) (Escherichia coli, UniProt P0AFU8); experiment: Kinetic assay of riboflavin synthase inhibitors, E. coli enzyme; details: for Kcat (rate constant ES → E + P) / Kis (ES + I ⇌ ESI) / Ks (substrate dissociation constant, E + S ⇌ ES): substrate 3 varied, Tris·HCl pH 7.0
E. coli riboflavin synthase (recombinant), sequence (P0AFU8 whole entry): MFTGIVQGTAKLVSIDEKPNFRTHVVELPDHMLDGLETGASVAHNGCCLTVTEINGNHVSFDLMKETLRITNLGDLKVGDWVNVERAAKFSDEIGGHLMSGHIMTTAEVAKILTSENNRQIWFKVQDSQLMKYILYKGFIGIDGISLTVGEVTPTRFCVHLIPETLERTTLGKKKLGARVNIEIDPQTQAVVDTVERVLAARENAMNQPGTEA

[4] = biological target: T1, S. pombe lumazine synthase (recombinant homopentameric) (Schizosaccharomyces pombe, UniProt Q9UUB1); experiment: Kinetic assay of lumazine synthase inhibitors, S. pombe enzyme; details: for Kcat (rate constant ES → E + P) / Kis (ES + I ⇌ ESI) / Ks (substrate dissociation constant, E + S ⇌ ES): substrate 2 constant, substrate 1 varied, Tris·HCl pH 7.0
T1 sequence (Q9UUB1 1-159): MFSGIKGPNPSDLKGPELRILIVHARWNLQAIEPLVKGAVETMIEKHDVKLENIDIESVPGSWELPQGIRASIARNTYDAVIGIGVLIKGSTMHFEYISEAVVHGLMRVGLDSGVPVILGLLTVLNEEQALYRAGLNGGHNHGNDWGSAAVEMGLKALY

[5] = substrate 2 constant, substrate 1 varied, Tris·HCl pH 7.0

| SMILES | Mechanism of inhibition [1] | Kcat (rate constant ES → E + P) [1] [m^−1] | Ki (E + I ⇌ EI) [1] | Ks (substrate dissociation constant, E + S ⇌ ES) [1] [µM] | Mechanism of inhibition [2] | Kcat (rate constant ES → E + P) [2, 5] [m^−1] | Ks (substrate dissociation constant, E + S ⇌ ES) [2, 5] [µM] | Mechanism of inhibition [3] | Kcat (rate constant ES → E + P) [3] [m^−1] | Kis (ES + I ⇌ ESI) [3] [µM] | Ks (substrate dissociation constant, E + S ⇌ ES) [3] [µM] | Kis (ES + I ⇌ ESI) [1] [µM] | Kcat (rate constant ES → E + P) ([2]; pH 7) [m^−1] | Mechanism of inhibition [4] | Kcat (rate constant ES → E + P) [4] [m^−1] | Kis (ES + I ⇌ ESI) [4] [µM] | Ks (substrate dissociation constant, E + S ⇌ ES) [4] [µM] | inhibitory activity in words [2] | Ki (E + I ⇌ EI) [2, 5] [µM] | Kis (ES + I ⇌ ESI) [2, 5] [µM] |
| --- | --- | --- | --- | --- | --- | --- | --- | --- | --- | --- | --- | --- | --- | --- | --- | --- | --- | --- | --- | --- |
| CC1(O)C(=O)Nc2c([nH]c(=O)[nH]c2=O)N1C[C@H](O)[C@H](O)[C@H](O)CO (stereo partly drawn) [Compound 69, 7-Hydroxy-7-methyl-8-[(2S,3S,4R)-2,3,4,5-tetrahydroxypentyl)-7,8-dihydropteridin-2,4,6(1H, 3H, 5H)-trione] | Competitive | 0.67 ± 0.02 | submicromolar | 8.9 ± 0.7 | Competitive | 0.59 ± 0.02 | 19 ± 2 |  |  |  |  |  |  |  |  |  |  |  |  |  |
| COC(=O)C(=O)Nc1c(OC[C@H](O)[C@H](O)[C@H](O)CO)[nH]c(=O)[nH]c1=O [Compound 37, Methyl 2-(2,4-dioxo-6-((2S,3R,4R)-2,3,4,5-tetrahydroxypentyloxy)1,2,3,4-tetrahydropyrimidin-5-ylamino)-2-oxoacetate] | Uncompetitive | 0.22 ± 0.01 | 868 µM | 4.1 ± 0.4 | Competitive |  | 29 ± 2 | Uncompetitive | 3.4 ± 0.1 | >1000 | 3.1 ± 0.2 | 868 ± 305 | 0.18 ± 0.00 | Partial | 1.5 ± 0.0 | 56 ± 15 | 1.7 ± 0.2 |  |  |  |
| O=c1[nH]c(OC[C@H](O)[C@H](O)[C@H](O)CO)c([N+](=O)[O-])c(=O)[nH]1 [Compound 22, 5-Nitro-6-((2S,3R,4R)-2,3,4,5-tetrahydroxypentyloxy)pyrimidine-2,4(1H,3H)-dione] | Partial | 0.26 ± 0.01 |  | 7.1 ± 0.7 | Competitive |  | 25 ± 2 | Competitive | 3.3 ± 0.01 |  | 2.6 ± 0.2 | 26 ± 6 | 0.19 ± 0.00 | Partial | 1.4 ± 0.0 | 110 ± 40 | 1.4 ± 0.1 |  |  |  |
| C=C(C)C(=O)Nc1c(SC[C@H](O)[C@H](O)[C@H](O)CO)[nH]c(=O)[nH]c1=O [Compound 51] | Uncompetitive | 0.84 ± 0.01 |  | 10 ± 0 | Competitive |  | 17 ± 1 |  |  |  |  | > 1000 | 0.92 ± 0.03 |  |  |  |  |  |  |  |
| CCOC(=O)C(=O)Nc1c(OC[C@H](O)[C@H](O)[C@H](O)CO)[nH]c(=O)[nH]c1=O [Compound 36, Ethyl 2-(2,4-dioxo-6-((2S,3R,4R)-2,3,4,5-tetrahydroxypentyloxy)1,2,3,4-tetrahydropyrimidin-5-ylamino)-2-oxoacetate] | Uncompetitive | 0.25 ± 0.01 |  | 5.0 ± 0.5 | Uncompetitive |  | 34 ± 5 | Uncompetitive | 5.8 ± 0.2 | >1000 | 3.0 ± 0.3 | >1000 | 0.26 ± 0.01 | Uncompetitive | 2.7 ± 0.1 | >1000 | 6.4 ± 0.6 | completely inactive; also recorded: totally inactive | > 1000 | >1000 |
| CC(Cl)C(=O)Nc1c(NC[C@H](O)[C@H](O)[C@H](O)CO)[nH]c(=O)[nH]c1=O (stereo partly drawn) [Compound 60, 2-Chloro-N-(2,4-dioxo-6-((2S,3S,4R)-2,3,4,5-tetrahydroxypentylamino)1,2,3,4-tetrahydropyrimidin-5-yl)propanamide] | Competitive | 0.72 ± 0.01 |  | 11 ± 1 | Competitive | 0.85 ± 0.03 | 17 ± 1 |  |  |  |  |  |  |  |  |  |  |  |  |  |
| CCC(=O)Nc1c(OC[C@H](O)[C@H](O)[C@H](O)CO)[nH]c(=O)[nH]c1=O [Compound 43] | Uncompetitive | 0.21 ± 0.00 |  | 4.4 ± 0.2 | Uncompetitive |  | 18 ± 2 |  |  |  |  | >1000 | 0.39 ± 0.00 |  |  |  |  | totally inactive |  |  |
| O=C(CCl)Nc1c(NC[C@H](O)[C@H](O)[C@H](O)CO)[nH]c(=O)[nH]c1=O [Compound 63, 2-Chloro-N-(2,4-dioxo-6-((2S,3S,4R)-2,3,4,5-tetrahydroxypentylamino)-1,2,3,4-tetrahydropyrimidin-5-yl)acetamide] | Uncompetitive | 0.66 ± 0.01 |  | 8.6 ± 0.4 | Partial | 0.62 ± 0.02 | 24 ± 2 |  |  |  |  | > 1000 |  |  |  |  |  |  |  | 53 ± 12 |
| C=C(C)C(=O)Nc1c(Cl)[nH]c(=O)[nH]c1=O [Compound 78, N-(6-Chloro-2,4-dioxo-1,2,3,4-tetrahydropyrimidin-5-yl)methacrylamide] | Uncompetitive | 0.58 ± 0.4 |  | 8.6 ± 0.4 | Uncompetitive | 0.53 ± 0.03 | 18 ± 2 |  |  |  |  | 694 ± 88 |  |  |  |  |  |  |  | >1000 |
| O=C(CC(F)(F)F)Nc1c(NC[C@H](O)[C@H](O)[C@H](O)CO)[nH]c(=O)[nH]c1=O [Compound 66, N-(2,4-Dioxo-6-((2S,3S,4R)-2,3,4,5-tetrahydroxypentylamino)-1,2,3,4-tetrahydropyrimidin-5-yl)-3,3,3-trifluoropropanamide] | Uncompetitive | 0.18 ± 0.1 |  | 6.6 ± 0.3 | Partial | 0.76 ± 0.02 | 20 ± 1 |  |  |  |  | > 1000 |  |  |  |  |  |  |  | 309 ± 125 |
| CC(C)C(=O)Nc1c(OC[C@H](O)[C@H](O)[C@H](O)CO)[nH]c(=O)[nH]c1=O [Compound 40] | Uncompetitive | 0.84 ± 0.02 |  | 9.3 ± 0.6 | Uncompetitive |  | 16 ± 1 |  |  |  |  | 698 ± 108 | 0.59 ± 0.01 |  |  |  |  | totally inactive |  | 766 ± 97 |
| C=C(C)C(=O)Nc1c(OC[C@H](O)[C@H](O)[C@H](O)CO)[nH]c(=O)[nH]c1=O [Compound 46] | Uncompetitive | 0.58 ± 0.01 |  | 9.2 ± 0.6 | Uncompetitive |  | 12 ± 1 |  |  |  |  | >1000 | 0.57 ± 0.01 |  |  |  |  |  | > 1000 | >1000 |
| CCC(=O)Nc1c(SC[C@H](O)[C@H](O)[C@H](O)CO)[nH]c(=O)[nH]c1=O [Compound 49] | Uncompetitive | 0.76 ± 0.01 |  | 10 ± 1 | Competitive |  | 11 ± 1 |  |  |  |  | > 1000 | 0.65 ± 0.01 |  |  |  |  |  |  | 128 |
| C=C(C)C(=O)Nc1c(NC[C@H](O)[C@H](O)[C@H](O)CO)[nH]c(=O)[nH]c1=O [Compound 56, N-[2,4-Dioxo-6-((2S,3S,4R)-2,3,4,5-tetrahydroxypentylamino]-1,2,3,4-tetrahydropyrimidin-5-yl)methacrylamide] | Partial | 0.57 ± 0.02 |  | 7.0 ± 0.6 | Uncompetitive | 0.52 ± 0.02 | 19 ± 2 |  |  |  |  | 35 ± 14 |  |  |  |  |  | inactive | > 1000 | > 1000 |
